Measurements from EP0013144A1, “Substituted diphenylamine derivatives, compositions and herbicidal uses thereof, and processes for their preparation” (ICI AUSTRALIA LIMITED, priority 1978, dated 1980).

Assays:
Assay type in all cases: in vivo
Winter wheat [1] = test: Post-emergence herbicidal test, young pot plants (Example 33); design: key: 0 = 0-20% damage, 5 = complete kill, vs untreated control; conditions: 2.0 kg/ha, after 14 days
Experimental: (§1) The compounds were formulated for test by mixing an appropriate amount with 5 ml of an emulsion prepared by diluting 160 ml of a solution containing 21.S g per litre of "Span" 80 and 78.2 g per litre of "Tween" 20 in methylcyclohexanone to 500 ml with water. "Span" 80 is a Trade Mark for a surface-active agent comprising sorbitan monolaurate. "Tween" 20 is a Trade Mark for a surface-active agent comprising a condensate of sorbitan monolaurate with 20 molar proportions of ethylene oxide. Each 5 ml emulsion containing a test compound was'then diluted to 40 ml with water and sprayed on to young pot plants (post-emergence test) of the species named in Table 5 below. Damage to test plants was assessed after 14 days on a scale of 0 to 5 where 0 is 0 to 20% damage and 5 is complete kill. In a test for pre-emergence herbicidal activity, seeds of the test plants were sown in a shallow slit formed in the surface of soil in fibre trays. The surface was then levelled and sprayed, and fresh soil then spread thinly over the sprayed surface. Assessment of herbicidal damage was carried out after 21 days using the same scale of 0 to 5 as the post-emergence test. In both cases the degree of herbicidal damage was assessed by comparison with untreated control plants. A dash (-) means that no experiment was carried out.

Rice [2] = test: Pre-emergence herbicidal test, fibre trays (Example 33); conditions: 2.0 kg/ha, after 21 days
Experimental: as §1

Maize [3] = test: as above; design: key: 0 = 0-20% damage, 5 = complete kill, vs untreated control; conditions: 2.0 kg/ha, after 21 days
Experimental: as §1

Soy bean [4] = test: as above; conditions: 2.0 kg/ha, after 21 days
Experimental: as §1

Senecio vulgaris [5] = test: as above; conditions: 2.0 kg/ha, after 21 days
Experimental: as §1

Rape [6] = test: as above; conditions: 2.0 kg/ha, after 21 days
Experimental: as §1

Cotton [7] = test: as above; conditions: 2.0 kg/ha, after 21 days
Experimental: as §1

Winter wheat [8] = test: as above; conditions: 2.0 kg/ha, after 21 days
Experimental: as §1

Sugar beet [9] = test: as above; conditions: 2.0 kg/ha, after 21 days
Experimental: as §1

Maize [10] = test: Post-emergence herbicidal test, young pot plants (Example 33); conditions: 2.0 kg/ha, after 14 days
Experimental: as §1

Rice [11] = test: as above; conditions: 2.0 kg/ha, after 14 days
Experimental: as §1

Soy bean [12] = test: as above; conditions: 2.0 kg/ha, after 14 days
Experimental: as §1

Senecio vulgaris [13] = test: as above; conditions: 2.0 kg/ha, after 14 days
Experimental: as §1

Polygonum aviculare = test: as above; conditions: 2.0 kg/ha, after 14 days
Experimental: as §1

Rape [14] = test: as above; conditions: 2.0 kg/ha, after 14 days
Experimental: as §1

Ipomea purpurea = test: as above; conditions: 2.0 kg/ha, after 14 days
Experimental: as §1

Cotton [15] = test: as above; conditions: 2.0 kg/ha, after 14 days
Experimental: as §1

Chenopodium album = test: as above; conditions: 2.0 kg/ha, after 14 days
Experimental: as §1

Amaranthus retroflexus = test: as above; conditions: 2.0 kg/ha, after 14 days
Experimental: as §1

Sugar beet [16] = test: as above; conditions: 2.0 kg/ha, after 14 days
Experimental: as §1

Ryegrass [17] = test: Pre-emergence herbicidal activity (Example 31); design: key: 0-3 scale: 0 = 0-25% damage, 3 = 75-99% kill, 3+ = 100% kill; conditions: after three weeks
Experimental: (§2) Concentrated formulations of the compounds of the invention were prepared by: • a) in the case of oils and waxy solids, dissolving the compound in toluene containing 7% v/v "Teric" N13 ("Teric" is a Trade MarK and "Teric" N13, a product of ethoxylation of nonylphenol, is available from ICI Australia Limited) and 3% v/v "Kemmat" SC15B ("Kemmat" is a Trade Mark and "Kemmat" SC15B is a formulation of calcium dodecylbenzene sulfonate); or • b) in the case of crystalline solids, adding 5 parts by weight of the compound and 1 part by weight of . ''Dyapol" PT ("Dyapol" is a Trade Mark and "Dyapol" PT is an anionic suspending agent) to 94 parts by weight of an aqueous solution containing 0.25% v/v of "Teric" N8 (a product of ethoxylation of nonylphenol) and ball-milling the mixture to produce a stable suspension. The emulsifiable concentrates and suspensions were then diluted with water to give an aqueous composition of the required concentration suitable for use in the evaluation of the pre-emergence and post-emergence herbicidal activity of the compounds of the invention.
(§3) The pre-emergent herbicidal activity of the compounds of the invention formulated as described in Example 30 was assessed by the following procedure.
(§4) The seeds of the test species were sown in rows 2 cm deep in soil contained in seed boxes. The monocotyledonous plants and the dicotyledonous plants were sprayed with the required quantity of a composition of the invention. Two duplicate seed Doxes were prepared in the same manner but were not sprayed with a composition of the invention and were used for comparison purposes. All the boxes were placed in a glasshouse, lightly watered with an overhead spray to initiate germination and then sub-irrigated as required for optimum plant growth. After three weeks the boxes were removed from the glasshouse and the effect of the treatment was visually assessed. The results are presented in Table 3 where the damage to plants is rated on a scale of from 0 to 3 where 0 represents from 0 to 25% damage, 3 represents 75 to 99% kill and 3+ represents 100% kill.
(§5) A dash (-) means that no experiment was carried out.

Wheat [18] = test: Pre-emergence herbicidal activity (Example 31); design: key: 0-3 scale: 0 = 0-25% damage, 3 = 75-99% kill, 3+ = 100% kill; conditions: after three weeks
Experimental: as §2, §3, §4, §5

Mustard [19] = test: Post-emergence herbicidal activity (Example 32); conditions: 3 weeks after spraying
Experimental: as §2
(§6) The post-emergent herbicidal activity of the compounds of the invention formulated as described in Example 30 was assessed by the following procedure.
(§7) The seeds of the test species were sown in rows 2 cm deep in soil contained in seed boxes. The monocotyledonous plants and the dicotyledonous plants were sown in separate seed boxes in duplicate. The four seed boxes were placed in a glasshouse, lightly watered with an overhead spray to initiate germination and then sub-irrigated as required for optimum plant growth. After the plants had grown to a height of about 10 to 12.5 cm one box of each of the monocotyledonous plants and the dicotyledonous plants was removed from the glasshouse and sprayed with the required quantity of a composition of the invention. After spraying the boxes were returned to the glasshouse for further 3 weeks and the effects of the treatment was visually assessed by comparison with the untreated controls. The results are presented in Table 4 where the damage to plants is rated on a scale of from 0 to 3 where 0 represents 0 to 25% damage, 3 represents 75 to 99% kill and 3+ represents 100% kill. A dash (-) means that no experiment was carried out.

Japanese millet [20] = test: Post-emergence herbicidal activity (Example 32); conditions: 3 weeks after spraying
Experimental: as §2, §6, §7

Sunflower [21] = test: Post-emergence herbicidal activity (Example 32); conditions: 3 weeks after spraying
Experimental: as §2, §6, §7

Ipomea [22] = test: Post-emergence herbicidal activity (Example 32); conditions: 3 weeks after spraying
Experimental: as §2, §6, §7

Wild Oats [23] = test: Post-emergence herbicidal activity (Example 32); conditions: 3 weeks after spraying
Experimental: as §2, §6, §7

Ryegrass [24] = test: Post-emergence herbicidal activity (Example 32); conditions: 3 weeks after spraying
Experimental: as §2, §6, §7

Wheat [25] = test: Post-emergence herbicidal activity (Example 32); design: key: 0-3 scale: 0 = 0-25% damage, 3 = 75-99% kill, 3+ = 100% kill; conditions: 3 weeks after spraying
Experimental: as §2, §6, §7

Mustard [26] = test: Pre-emergence herbicidal activity (Example 31); conditions: after three weeks
Experimental: as §2, §3, §4, §5

Japanese millet [27] = test: Pre-emergence herbicidal activity (Example 31); conditions: after three weeks
Experimental: as §2, §3, §4, §5

Sunflower [28] = test: Pre-emergence herbicidal activity (Example 31); conditions: after three weeks
Experimental: as §2, §3, §4, §5

Ipomea [29] = test: Pre-emergence herbicidal activity (Example 31); conditions: after three weeks
Experimental: as §2, §3, §4, §5

Wild Oats [30] = test: Pre-emergence herbicidal activity (Example 31); conditions: after three weeks
Experimental: as §2, §3, §4, §5

Compound: COC(=O)C(C)Oc1ccc(Nc2ccc(Cl)cc2)cc1 (centres unmarked) [Compound 12, Methyl 2-[4-(4-chloroanilino)prienoxy]propionate]
- damage to test plants, Ww (Winter wheat [1]): 0 (0 is 0 to 20% damage)
- herbicidal damage, Rc (Rice [2]): 0 (0 is 0 to 20% damage)
- herbicidal damage, Mz (Maize [3]): 0 (0 is 0 to 20% damage)
- herbicidal damage, Sy (Soy bean [4]): 1
- herbicidal damage, Sn (Senecio vulgaris [5]): 0 (0 is 0 to 20% damage)
- herbicidal damage, Rp (Rape [6]): 1
- herbicidal damage, Ct (Cotton [7]): 1
- herbicidal damage, Ww (Winter wheat [8]): 0 (0 is 0 to 20% damage)
- herbicidal damage, Sb (Sugar beet [9]): 2
- damage to test plants, Mz (Maize [10]): 2
- damage to test plants, Rc (Rice [11]): 0 (0 is 0 to 20% damage)
- damage to test plants, Sy (Soy bean [12]): 0 (0 is 0 to 20% damage)
- damage to test plants, Sn (Senecio vulgaris [13]): 1
- damage to test plants, Pi (Polygonum aviculare): 0 (0 is 0 to 20% damage)
- damage to test plants, Rp (Rape [14]): 0 (0 is 0 to 20% damage)
- damage to test plants, Ip (Ipomea purpurea): 0 (0 is 0 to 20% damage)
- damage to test plants, Ct (Cotton [15]): 0 (0 is 0 to 20% damage)
- damage to test plants, Ca (Chenopodium album): 0 (0 is 0 to 20% damage)
- damage to test plants, Am (Amaranthus retroflexus): 2
- damage to test plants, Sb (Sugar beet [16]): 1

Compound: COC(=O)C(C)Oc1ccc(N(C)c2ccc(Cl)cc2)cc1 (centres unmarked) [Compound 13, Methyl 2-[4-(4-chloro-N-methylanilino)phenoxy]-propionate]
- damage to plants, Rg (Ryegrass [17]; 1 kg/ha): 0 (0 represents from 0 to 25% damage)
- damage to plants, Rg (Ryegrass [17]; 5 kg/ha): 1
- damage to plants, Wh (Wheat [18]; 1 kg/ha): 0 (0 represents from 0 to 25% damage)
- damage to plants, Wh (Wheat [18]; 5 kg/ha): 0 (0 represents from 0 to 25% damage)
- damage to plants, Ms (Mustard [19]; 1 kg/ha): 0 (0 represents 0 to 25% damage)
- damage to plants, Ms (Mustard [19]; 5 kg/ha): 0 (0 represents 0 to 25% damage)
- damage to plants, Jm (Japanese millet [20]; 1 kg/ha): 3 (3 represents 75 to 99% kill)
- damage to plants, Jm (Japanese millet [20]; 5 kg/ha): 3 (3 represents 75 to 99% kill)
- damage to plants, Sf (Sunflower [21]; 1 kg/ha): 0 (0 represents 0 to 25% damage)
- damage to plants, Sf (Sunflower [21]; 5 kg/ha): 0 (0 represents 0 to 25% damage)
- damage to plants, Ip (Ipomea [22]; 1 kg/ha): 0 (0 represents 0 to 25% damage)
- damage to plants, Ip (Ipomea [22]; 5 kg/ha): 0 (0 represents 0 to 25% damage)
- damage to plants, Ot (Wild Oats [23]; 1 kg/ha): 0 (0 represents 0 to 25% damage)
- damage to plants, Ot (Wild Oats [23]; 5 kg/ha): 0 (0 represents 0 to 25% damage)
- damage to plants, Rg (Ryegrass [24]; 1 kg/ha): 1
- damage to plants, Rg (Ryegrass [24]; 5 kg/ha): 3 (3 represents 75 to 99% kill)
- damage to plants, Wh (Wheat [25]; 1 kg/ha): 0 (0 represents 0 to 25% damage)
- damage to plants, Wh (Wheat [25]; 5 kg/ha): 0 (0 represents 0 to 25% damage)
- damage to plants, Ms (Mustard [26]; 1 kg/ha): 0 (0 represents from 0 to 25% damage)
- damage to plants, Ms (Mustard [26]; 5 kg/ha): 0 (0 represents from 0 to 25% damage)
- damage to plants, Jm (Japanese millet [27]; 1 kg/ha): 0 (0 represents from 0 to 25% damage)
- damage to plants, Jm (Japanese millet [27]; 5 kg/ha): 0 (0 represents from 0 to 25% damage)
- damage to plants, Sf (Sunflower [28]; 1 kg/ha): 0 (0 represents from 0 to 25% damage)
- damage to plants, Sf (Sunflower [28]; 5 kg/ha): 0 (0 represents from 0 to 25% damage)
- damage to plants, Ip (Ipomea [29]; 1 kg/ha): 0 (0 represents from 0 to 25% damage)
- damage to plants, Ip (Ipomea [29]; 5 kg/ha): 0 (0 represents from 0 to 25% damage)
- damage to plants, Ot (Wild Oats [30]; 1 kg/ha): 0 (0 represents from 0 to 25% damage)
- damage to plants, Ot (Wild Oats [30]; 5 kg/ha): 0 (0 represents from 0 to 25% damage)

Compound: CCCCSC(=O)C(C)Oc1ccc(Nc2ccc(C(F)(F)F)cc2[N+](=O)[O-])cc1 (centres unmarked) [Compound 62]
- damage to plants, Rg (Ryegrass [17]; 1 kg/ha): 2
- damage to plants, Wh (Wheat [18]; 1 kg/ha): 0 (0 represents from 0 to 25% damage)
- damage to plants, Ms (Mustard [19]; 1 kg/ha): 0 (0 represents 0 to 25% damage)
- damage to plants, Jm (Japanese millet [20]; 1 kg/ha): 3+ (3+ represents 100% kill)
- damage to plants, Sf (Sunflower [21]; 1 kg/ha): 0 (0 represents 0 to 25% damage)
- damage to plants, Ip (Ipomea [22]; 1 kg/ha): 0 (0 represents 0 to 25% damage)
- damage to plants, Ot (Wild Oats [23]; 1 kg/ha): 3 (3 represents 75 to 99% kill)
- damage to plants, Rg (Ryegrass [24]; 1 kg/ha): 3+ (3+ represents 100% kill)
- damage to plants, Wh (Wheat [25]; 1 kg/ha): 3 (3 represents 75 to 99% kill)
- damage to plants, Ms (Mustard [26]; 1 kg/ha): 0 (0 represents from 0 to 25% damage)
- damage to plants, Jm (Japanese millet [27]; 1 kg/ha): 2
- damage to plants, Sf (Sunflower [28]; 1 kg/ha): 0 (0 represents from 0 to 25% damage)
- damage to plants, Ip (Ipomea [29]; 1 kg/ha): 0 (0 represents from 0 to 25% damage)
- damage to plants, Ot (Wild Oats [30]; 1 kg/ha): 1
